Assay results: patent publication US8470970B2, “Mammalian sweet and amino acid heterodimeric taste receptors comprising T1R3 and T1R1” (The Regents of the University of California, priority 2001, dated 2013)

Key:
[1] = molecular target: T1, mouse T1R1+3 (Mus musculus, UniProt Q925D8+Q99PG6); assay: Calcium imaging of HEK-293 cells co-expressing promiscuous G proteins and mouse T1R1+3; assay type: cell-based; conditions: for shift of T1R1+3 dose response in the presence of IMP: 2.5 mM IMP; for activation of T1R1+3: amino acids 50 mM
T1 construct: expressed in transfected cells; host or cells: HEK-293 (PEAKrapid) cells co-expressing promiscuous G proteins
T1 sequence (Q99PG6 20-842 L120P/N244D/D281A/N309Y/P311T/S314P/H418Y): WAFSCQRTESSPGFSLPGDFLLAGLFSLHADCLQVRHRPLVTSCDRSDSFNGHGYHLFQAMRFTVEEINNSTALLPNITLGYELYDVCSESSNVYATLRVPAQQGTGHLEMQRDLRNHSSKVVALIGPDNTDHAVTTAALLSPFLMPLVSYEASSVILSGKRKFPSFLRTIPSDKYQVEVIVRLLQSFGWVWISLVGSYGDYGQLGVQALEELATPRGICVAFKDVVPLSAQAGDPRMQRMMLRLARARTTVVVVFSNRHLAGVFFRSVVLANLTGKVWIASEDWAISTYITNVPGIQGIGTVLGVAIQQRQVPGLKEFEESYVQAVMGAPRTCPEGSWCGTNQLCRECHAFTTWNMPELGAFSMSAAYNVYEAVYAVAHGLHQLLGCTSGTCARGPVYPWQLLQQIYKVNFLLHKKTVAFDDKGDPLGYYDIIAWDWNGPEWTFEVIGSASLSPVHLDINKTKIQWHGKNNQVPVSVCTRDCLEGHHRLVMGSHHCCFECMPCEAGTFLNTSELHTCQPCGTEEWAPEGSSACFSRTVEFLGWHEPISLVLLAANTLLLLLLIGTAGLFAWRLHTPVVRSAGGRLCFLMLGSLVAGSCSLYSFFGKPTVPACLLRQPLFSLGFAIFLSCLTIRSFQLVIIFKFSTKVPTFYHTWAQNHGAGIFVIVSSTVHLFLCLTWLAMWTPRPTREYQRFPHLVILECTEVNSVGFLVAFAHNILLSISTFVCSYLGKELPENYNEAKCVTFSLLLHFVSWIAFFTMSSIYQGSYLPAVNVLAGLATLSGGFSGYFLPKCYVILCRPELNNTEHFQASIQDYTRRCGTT
T1 sequence (Q925D8 21-858): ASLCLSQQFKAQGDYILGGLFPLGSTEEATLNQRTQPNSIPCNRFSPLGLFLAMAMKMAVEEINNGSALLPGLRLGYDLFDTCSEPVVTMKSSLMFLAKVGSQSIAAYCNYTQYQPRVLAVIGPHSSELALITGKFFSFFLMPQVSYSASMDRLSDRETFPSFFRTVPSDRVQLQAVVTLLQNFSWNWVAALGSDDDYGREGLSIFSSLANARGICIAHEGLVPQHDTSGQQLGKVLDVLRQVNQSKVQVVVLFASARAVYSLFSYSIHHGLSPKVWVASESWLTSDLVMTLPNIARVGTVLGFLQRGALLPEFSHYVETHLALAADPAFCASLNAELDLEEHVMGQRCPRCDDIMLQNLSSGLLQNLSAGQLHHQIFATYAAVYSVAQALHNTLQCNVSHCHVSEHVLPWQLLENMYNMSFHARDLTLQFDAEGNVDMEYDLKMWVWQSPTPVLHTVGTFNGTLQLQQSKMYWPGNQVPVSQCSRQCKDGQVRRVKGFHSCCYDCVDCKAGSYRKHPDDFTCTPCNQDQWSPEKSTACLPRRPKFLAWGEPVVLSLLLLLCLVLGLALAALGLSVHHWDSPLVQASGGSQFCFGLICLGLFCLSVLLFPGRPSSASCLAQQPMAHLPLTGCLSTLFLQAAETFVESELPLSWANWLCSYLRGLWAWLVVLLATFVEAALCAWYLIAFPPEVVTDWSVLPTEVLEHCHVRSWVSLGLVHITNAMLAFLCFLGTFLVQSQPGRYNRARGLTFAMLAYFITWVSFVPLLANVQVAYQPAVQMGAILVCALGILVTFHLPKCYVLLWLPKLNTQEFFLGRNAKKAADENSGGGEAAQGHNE
Method: (a): HEK-293 cells co-expressing promiscuous G proteins and heteromeric mouse T1R2+3 or T1R1+3 receptors were stimulated with L- and D-amino acids. […] (b)(c): Quantification of amino-acid responses for T1R2+3(b) and T1R1+3(c). […] Each column represents the mean±s.e.m. of at least ten independent determinations. […] All calcium measurements and quantifications were performed as described in the Methods and Nelson et al., Cell 106:381-390 (2001).
Mouse T1R1 and T1R3 were transfected alone or in combination and tested for stimulation by L-amino acids.
(§1) Cells were grown, maintained and transfected exactly as described earlier (Nelson et al., Cell, 106:381-390 (2001)). […] FURA-2 acetomethyl ester was used to measure intracellular calcium concentration ([Ca^2+]i), and assay conditions were identical to those previously described (Nelson et al., Cell, 106:381-390 (2001)). Responses were measured for 60 s and the fluorescence ratio at wavelengths of 340 and 380 nm (F340/F380) was used to measure [Ca^2+]i. For data analysis, response refers to the number of cells responding in a field of about 300 transfected cells. Cells were counted as responders if F340/F380 increased above 0.27 after addition of tastant. […] Dose-response functions were fitted using the logistical equation. Studies involving taster and non-taster alleles of T1R3 used constructs of complementary DNA coding for T1R3 from C57BL/6 and 129/Sv mice, respectively (Nelson et al., Cell, 106:381-390 (2001); Kitagawa et al., Biochem. Biophys. Res. Cummun., 283:236-242 (2001); Montmayeur et al., Nature Neurosci., 4:492-498 (2001); Max et al., Nature Genet., 28:58-63 (2001); Sainz et al., J. Neurochem., 77:896-903 (2001); Bachmanov et al., Chem. Senses, 26:925-933 (2001)).

[2] = molecular target: T2, receptors containing human T1R1 (UniProt Q7RTX1+Q925D8)
T2 sequence (Q7RTX1 21-841): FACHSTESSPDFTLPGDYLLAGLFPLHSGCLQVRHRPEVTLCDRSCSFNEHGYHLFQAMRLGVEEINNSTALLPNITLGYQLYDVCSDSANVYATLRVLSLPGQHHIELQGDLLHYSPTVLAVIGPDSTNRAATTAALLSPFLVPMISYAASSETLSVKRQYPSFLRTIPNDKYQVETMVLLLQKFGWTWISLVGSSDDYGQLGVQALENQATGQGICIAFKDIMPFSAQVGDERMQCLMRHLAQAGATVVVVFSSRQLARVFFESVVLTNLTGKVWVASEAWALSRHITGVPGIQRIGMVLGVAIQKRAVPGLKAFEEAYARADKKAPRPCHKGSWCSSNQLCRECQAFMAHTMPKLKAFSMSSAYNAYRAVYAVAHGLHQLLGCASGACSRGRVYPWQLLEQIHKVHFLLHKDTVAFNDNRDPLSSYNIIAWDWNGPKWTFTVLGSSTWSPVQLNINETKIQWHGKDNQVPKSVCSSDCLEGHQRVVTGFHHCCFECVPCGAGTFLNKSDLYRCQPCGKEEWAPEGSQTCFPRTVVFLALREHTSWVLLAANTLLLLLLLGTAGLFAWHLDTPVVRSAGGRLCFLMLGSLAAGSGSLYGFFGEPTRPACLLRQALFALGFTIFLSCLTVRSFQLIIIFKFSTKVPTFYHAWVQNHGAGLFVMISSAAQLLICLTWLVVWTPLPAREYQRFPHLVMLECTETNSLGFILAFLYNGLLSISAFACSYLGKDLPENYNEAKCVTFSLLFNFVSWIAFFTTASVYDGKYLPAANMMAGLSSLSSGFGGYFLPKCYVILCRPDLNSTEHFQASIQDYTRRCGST
T2 sequence (Q925D8 21-858): T1 sequence (Q925D8 21-858)
Method: as §1

[3] = Behavioral thresholds for detection of sweet tastants in vivo

Q: Which results are given for `C[C@H](N)C(=O)O` [Ala, alanine]?
A: shift of T1R1+3 dose response in the presence of IMP [1]: at least one order of magnitude to the left; activation of T1R1+3 [1]: activating

Q: For `C[C@@H](N)C(=O)O` [D-Ala], which “activation of T1R1+3 by D-amino acid in the presence of IMP” value ([1]; amino acid 50 mM, IMP 2.5 mM) is on record?
A: The value was “exception”.

Q: Which “sensitivity of cells expressing human T1R1 relative to other amino acids” value [2] does the source give for `N[C@@H](CCC(=O)O)C(=O)O` [Glu, glutamate] here?
A: Its value is “more than an order of magnitude more sensitive”.

Q: And the “shift of T1R1+3 dose response in the presence of IMP” value [1]?
A: The value was “at least one order of magnitude to the left”.

Q: Which results are given for `NCC(=O)O` [Gly, glycine]?
A: activation of T1R1+3 [1]: activates; activation of T1R1+3 ([1]; listed as glycine): activating

Q: With `NC(CCP(=O)(O)O)C(=O)O` [L-AP4] as the compound, how does the “potentiation of T1R1+3 response to the tastant by purine nucleotides” value [1] read?
A: Its value is “greatly potentiated”.

Q: With `N[C@@H](CCC(=O)O)C(=O)[O-].[Na+]` [MSG, monosodium L-glutamate] as the compound, how does the “activation of receptors containing human T1R1” value ([2]; low concentration, FIG. 11c) read?
A: The value was “robustly activates”.

Q: And the “potentiation of T1R1+3 response to the tastant by purine nucleotides” value [1]?
A: The value was “greatly potentiated”.

Q: Which “shift of T1R1+3 dose response in the presence of IMP” value [1] does the source give for `N[C@@H](CO)C(=O)O` [Ser, serine] here?
A: The value was “at least one order of magnitude to the left”.

Q: What about the “activation of T1R1+3” value [1] of the same compound?
A: The value was “activating”.

Q: For `N[C@@H](Cc1c[nH]c2ccccc12)C(=O)O` [Trp], which “activation of T1R1+3” value [1] is on record?
A: Its value is “no responses”.

Q: For `CC1=CC(=O)[N-]S(=O)(=O)O1.[K+]` [acesulfame-K], which in vivo threshold [3] is on record?
A: Its in vivo threshold is ~0.5 mM.

Q: For `NC(=O)CC[C@H](N)C(=O)O` [glutamine], which “activation of T1R1+3” value [1] is on record?
A: Its value is “activating”.

Q: With `O=C1NS(=O)(=O)c2ccccc21` [saccharin] as the compound, how does the in vivo threshold [3] read?
A: Its in vivo threshold is ~0.5 mM.

Q: Which in vivo threshold [3] does the source give for `OC[C@H]1O[C@@](CO)(O[C@H]2O[C@H](CO)[C@@H](O)[C@H](O)[C@H]2O)[C@@H](O)[C@@H]1O` [sucrose] here?
A: Its in vivo threshold is ~20 mM.

Q: With `C[C@@H](O)[C@H](N)C(=O)O` [threonine] as the compound, how does the “activation of T1R1+3” value [1] read?
A: The value was “activating”.
